Data on one molecule can be found in patent US20150322033A1, “ANTIBACTERIAL AGENT” (priority 2012, published 2015).

The term IC50 denotes the concentration needed to halve the response being measured.

Values after ≈ are worked out from the molar mass of the structure shown.

Test [1] addresses T1, GyrA(wt) + GyrB(wt) (Staphylococcus aureus, UniProt P20831).
T1 construct: made in house; host or cells: E. coli BL21(DE3)
Nature of the test: DNA cleavage assay with GyrA(wt) and GyrB(wt). It counts as biochemical. Particulars: for Ratio of cleaved DNA (%) / Ratio of substrate plasmid DNA (%): Table 18. An excerpt:
The gene sequence encoding the wild-type GyrA of Staphylococcus aureus (henceforth also referred to as “GyrA(wt)”) shown as SEQ ID NO: 1 was cloned into the plasmid pMAL-c2 (produced by New England Biolabs) (the resultant is henceforth also referred to as “pMAL-c2-gyrA”).
The gene sequence encoding the wild-type GyrB of Staphylococcus aureus (henceforth also referred to as “GyrB(wt)”) shown as SEQ ID NO: 2 was cloned into the plasmid pMAL-c2 (produced by New England Biolabs) (the resultant is henceforth also referred to as “pMAL-c2-gyrB”).
(§1) E. coliBL21(DE3) (produced by Invitrogen) was transformed with pMAL-c2-gyrA mentioned above, with pMAL-c2-gyrB mentioned above, or with pMAL-c2-SAGAmut84 containing a mutant gyrA encoding the amino acid sequence of GyrA(wt) in which serine residue at the 84th position from the amino terminus is substituted with a leucine residue (see, Hiramatsu K., Igarashi M., Morimoto Y, Baba T., Umekita M., Akamatsu Y., Int. J. Antimicrob. Agents, 2012 June; 39(6), 478-85). To the culture medium of the resulting transformed Escherichia coli, 1 mM […] (produced by Wako Pure Chemical Industries) was added to induce expression of maltose-binding GyrA(wt), maltose-binding GyrB(wt), or maltose-binding mutant GyrA(S84L), and the bacterium was cultured overnight at 25° C. After completion of the culture, the cells were collected, and suspended in a buffer (20 mM Tris-HCl (pH 8.0), 200 mM sodium chloride, 1 mM ethylenediaminetetraacetic acid (EDTA), 1 mM dithiothreitol (DTT)), a protein extracting reagent (10× BugBuster (registered trademark), produced by Novagen) in a volume of 1/10 of the volume of the buffer, and 2.5 μL/10 mL of the buffer of Benzonase (registered trademark) nuclease (produced by Novagen) were added, the mixture was left standing at 25° C. for 30 minutes, and the cells were disrupted and lysed to obtain a disrupted cell suspension containing the maltose-binding GyrA(wt), maltose-binding GyrB(wt), or maltose-binding mutant GyrA(S84L).
(§2) Then, each disrupted cell suspension mentioned above was added to a column filled with an amylose resin covalently bound with maltose (produced by Novagen). A buffer (20 mM Tris-HCl (pH 8.0), 200 mM sodium chloride, 1 mM EDTA) containing 10 mM maltose was added to the column to elute the maltose-binding GyrA(wt), maltose-binding GyrB(wt), and maltose-binding mutant GyrA(S84L).
(§3) To each eluate, 4 units/1 mL of the eluate of protease (Factor Xa, produced by Amersham) was added, and the mixture was left standing at 25° C. for 3 hours and 30 minutes to cleave the maltose-binding proteins, GyrA(wt), GyrB(wt), and mutant GyrA(S84L) from the maltose-binding GyrA(wt), maltose-binding GyrB(wt), and maltose-binding mutant GyrA(S84L).
(§4) Then, GyrA(wt), GyrB(wt), and mutant GyrA(S84L) were concentrated by using an ultrafiltration unit (YM-50 Filter Unit, produced by Millipore).
(§5) The concentrated GyrA(wt), GyrB(wt), and mutant GyrA(S84L) were each suspended in a buffer (35 mM Tris-HCl (pH 7.5), 24 mM potassium chloride, 6 mM magnesium chloride, 1.8 mM spermidine, 0.36 mg/mL bovine serum albumin, 5 mM DTT, 50 volume % glycerol) at a concentration of 1 μg/μL for GyrA(wt), 2 μg/μL for GyrB(wt), or 1 μg/μL for mutant GyrA(S84L).
A substrate plasmid DNA, pTWV228 (0.4 μg, produced by Takara Bio), and levofloxacin (LVFX) or apigenin were added to a buffer (35 mM Tris-HCl (pH 7.5), 24 mM potassium chloride, 6 mM magnesium chloride, 1.8 mM spermidine, 0.36 mg/mL bovine serum albumin, 5 mM DTT), and 0.15 μL of the enzyme solution of GyrA(wt) and […] of the enzyme solution of GyrB(wt) were added to the mixture to prepare a reaction mixture in a total volume of 20
Levofloxacin was added at a final concentration of 0, 0.5, 1, 2, 4, 8, 16, or 32 μg/mL.
The aforementioned reaction solution was left standing at 25° C. for 30 minutes to allow the reaction. […]

Test [2] addresses T2, GyrA(S84L) + GyrB(wt) (Staphylococcus aureus, UniProt P20831, S84L).
T2 construct: made in house; host or cells: E. coli BL21(DE3)
Nature of the test: DNA cleavage assay with mutant GyrA(S84L) and GyrB(wt). It counts as biochemical. Particulars: IC50 (μg/mL) GyrA(S84L) + GyrB(wt), Example 9, Table 18.
Description: as §1, §2, §3, §4, §5
An assay was performed in the same manner as that of the cleavage of the plasmid DNA with GyrA(wt) and GyrB(wt) mentioned above, provided that 0.15 μL of an enzyme solution of mutant GyrA(S84L) and 0.2 μL of the enzyme solution of GyrB(wt) were added instead of […] of the enzyme solution of GyrA(wt) and 0.2 μL of the enzyme solution of GyrB(wt). In FIGS. 3 and 4, the symbols “S”, “L”, and “N” have the same meanings as those explained for FIGS. 1 and 2.
IC50 value of levofloxacin or apigenin was also calculated from the visualized images shown in FIGS. 3 and 4 in the same manner as that used for the calculation using the results shown in FIGS. 1 and 2.
The DNA cleavage assay was performed with M-246 in the same manner as that used in Example 4.

Test [3] concerns S. aureus FDA209P (ATCC 6538P). Nature of the test: microbe, parasite or virus in culture. The format is cell-based, Staphylococcus aureus. Particulars: Staphylococcus aureus; Example 8, Table 17; read-out: MIC FDA209P. The gist of the method: (§6)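 Overnight TSB cultures at 37 °C adjusted to A578 0.3, diluted 500-fold in CAMHB and mixed 1:1 with compound in CAMHB; static overnight incubation at 37 °C. MIC reported in mg/L; Mu50 NR-1 also tested in some runs.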

In test [4] the test system is S. aureus Mu50. Nature of the test: microbe, parasite or virus in culture. The format is cell-based, Staphylococcus aureus. The conditions noted are these: Staphylococcus aureus, MU50, read-out: MIC Mu50, Example 8, Table 17. The procedure, abridged: as §6

Consider `COc1ccc2c(=O)cc(-c3ccc(O)c(OC)c3)oc2c1` [M-246], for which the “Ratio of cleaved DNA (%)” value was determined as 18% in test [1] (0.5 μg/mL); 23% in test [1] (1 μg/mL); 29% in test [1] (2 μg/mL); 40% in test [1] (4 μg/mL); 47% in test [1] (8 μg/mL); 56% in test [1] (16 μg/mL). In addition, the “Ratio of cleaved DNA (%)” value in test [1] (32 μg/mL) is listed as 67%. In addition, the “Ratio of substrate plasmid DNA (%)” value in test [1] (0.5 μg/mL) is reported as 82%; in test [1] (1 μg/mL), 77%; in test [1] (2 μg/mL) it was 71%; in test [1] (4 μg/mL), 60%; in test [1] (8 μg/mL) it was 53%; in test [1] (16 μg/mL) it was 44%. The “Ratio of substrate plasmid DNA (%)” value in test [1] (32 μg/mL) is recorded as 33%. For the same molecule, the half-inhibitory concentration (IC50) in test [1] (IC50 (μg/mL) GyrA(wt) + GyrB(wt), Example 9, Table 18) is 53.6 µM; in test [2] it was 3.35 µM. Also, the values for the MIC in test [3] and in test [4] were 128 µg/mL (≈ 429 µM) and 4 µg/mL (≈ 13.4 µM), respectively.
